# Experimental data reported in ChEMBL document CHEMBL5532645, “Discovery of proteolysis-targeting chimera targeting undruggable proteins using a covalent ligand screening approach” (Eur J Med Chem, 2024).
# The source made the active and inactive calls. No cut-off for these calls is given here.
# Assays:
# [1] = biological target: T1, Protein cereblon/E3 ubiquitin-protein ligase Mdm2 (Homo sapiens) (UniProt Q00987+Q96SW2); experiment: PROTAC activity at CRBN/MDM2 in human HEK293 cells at 3 to 10 uM preincubated with MG132 for 4 hrs followed by compound addition and measured after 20 hrs by Western blot analysis; type: cell-based; settings: dose 3-10 µM
# [2] = biological target: T1, Protein cereblon/E3 ubiquitin-protein ligase Mdm2 (Homo sapiens); experiment: PROTAC activity at CRBN/MDM2 in human HEK293 cells at 3 to 10 uM preincubated with MLN4924 for 4 hrs followed by compound addition and measured after 20 hrs by Western blot analysis; type: cell-based; settings: dose 3-10 µM
# [3] = biological target: T1, Protein cereblon/E3 ubiquitin-protein ligase Mdm2 (Homo sapiens); experiment: PROTAC activity at CRBN/MDM2 in human HEK293 cells at 30 uM measured after 24 hrs Western blot analysis relative to control; type: cell-based
# [4] = biological target: T1, Protein cereblon/E3 ubiquitin-protein ligase Mdm2 (Homo sapiens); experiment: PROTAC activity at CRBN/MDM2 in human HEK293 cells assessed as induction of MDM2 degradation measured after 24 hrs by Western blot analysis; type: cell-based; settings: dose 3-30 µM
# [5] = biological target: T1, Protein cereblon/E3 ubiquitin-protein ligase Mdm2 (Homo sapiens); experiment: PROTAC activity at CRBN/MDM2 in human HEK293 cells assessed as induction of MDM2 degradation at 30 uM by Western blot analysis; type: cell-based; settings: time 2-24 hrs, TDE = time-dependent effect
# [6] = biological target: T1, Protein cereblon/E3 ubiquitin-protein ligase Mdm2 (Homo sapiens); experiment: PROTAC activity at CRBN/MDM2 in human HEK293 cells assessed as maximum degradation at 10 uM measured after 24 to 48 hrs by Western blot analysis; type: cell-based; settings: time 24-48 hrs
# [7] = biological target: T1, Protein cereblon/E3 ubiquitin-protein ligase Mdm2 (Homo sapiens); experiment: PROTAC activity at CRBN/MDM2 in human HEK293 cells assessed as induction of MDM2 degradation at 3 to 10 uM; type: cell-based; settings: dose 3-10 µM
# [8] = biological target: T1, Protein cereblon/E3 ubiquitin-protein ligase Mdm2 (Homo sapiens); experiment: PROTAC activity at CRBN/MDM2 in human HEK293 cells assessed as induction of MDM2 degradation at 30 uM measured after 2 hrs by Western blot analysis; type: cell-based
# [9] = biological target: T1, Protein cereblon/E3 ubiquitin-protein ligase Mdm2 (Homo sapiens); experiment: PROTAC activity at CRBN/MDM2 in human HEK293 cells assessed as induction of MDM2 degradation at 30 uM measured after 24 hrs by Western blot analysis; type: cell-based
# [10] = biological target: T1, Protein cereblon/E3 ubiquitin-protein ligase Mdm2 (Homo sapiens); experiment: PROTAC activity at CRBN/MDM2 in human HEK293 cells assessed as increase in MDM2 expression at 30 uM measured after 6 hrs by Western blot analysis; type: cell-based
# HEK293 = experiment: Cytotoxicity against HEK293 cells assessed as cell viability at 0.3 uM incubated for 24 hrs by cell counting kit 8 method; type: toxicity, cell-based; settings: human, hek293, 24 h
# T1 sequence (Q00987 whole entry, looked up): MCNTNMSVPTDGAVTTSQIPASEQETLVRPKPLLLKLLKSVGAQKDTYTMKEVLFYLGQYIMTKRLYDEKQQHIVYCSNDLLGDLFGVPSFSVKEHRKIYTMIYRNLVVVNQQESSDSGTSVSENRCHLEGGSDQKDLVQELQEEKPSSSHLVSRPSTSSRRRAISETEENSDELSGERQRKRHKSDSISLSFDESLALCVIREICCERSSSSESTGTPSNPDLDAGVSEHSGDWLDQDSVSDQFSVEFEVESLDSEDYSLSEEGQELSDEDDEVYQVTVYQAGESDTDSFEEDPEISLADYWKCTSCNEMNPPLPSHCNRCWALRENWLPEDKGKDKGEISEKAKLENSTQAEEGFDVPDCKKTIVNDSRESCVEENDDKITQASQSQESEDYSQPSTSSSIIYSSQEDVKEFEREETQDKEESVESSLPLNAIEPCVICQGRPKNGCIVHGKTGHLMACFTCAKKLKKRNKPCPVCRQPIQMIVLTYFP
# T1 sequence (Q96SW2 whole entry, looked up): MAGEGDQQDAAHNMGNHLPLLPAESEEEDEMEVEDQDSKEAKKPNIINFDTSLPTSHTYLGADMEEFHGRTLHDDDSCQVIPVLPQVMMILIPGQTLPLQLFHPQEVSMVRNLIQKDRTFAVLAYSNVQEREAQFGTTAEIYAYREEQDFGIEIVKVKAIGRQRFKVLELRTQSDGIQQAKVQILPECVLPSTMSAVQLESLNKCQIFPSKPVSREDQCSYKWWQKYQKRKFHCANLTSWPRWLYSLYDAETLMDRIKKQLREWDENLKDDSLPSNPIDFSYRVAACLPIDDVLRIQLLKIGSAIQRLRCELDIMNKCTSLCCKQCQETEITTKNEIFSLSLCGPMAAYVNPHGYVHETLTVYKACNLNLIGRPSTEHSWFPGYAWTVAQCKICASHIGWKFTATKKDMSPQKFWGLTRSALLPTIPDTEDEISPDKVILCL
structure (smiles),measurement,setting,value
CN(C(=O)CCOCCNc1cccc2c1C(=O)N(C1CCC(=O)NC1=O)C2=O)C(c1ccc(F)cc1)c1cccnc1 (stereo not given),Activity,[1],inactive
same,Activity,[2],inactive
same,Emax,[3],31.2%
same,Activity,[4],Dose-Dependent Effect
same,Activity,[5],Tde
same,Activity,[6],Active
same,Activity,[7],Active
O=C1CCC(N2C(=O)c3ccc(NCCOCCOCCC(=O)N4CCN(c5nccc(C(F)(F)F)n5)CC4)cc3C2=O)C(=O)N1 (stereo not given),Emax,[3],31.5%
same,Activity,[8],Active
same,Activity,[9],inactive
same,Activity,[10],Active
O=C1CCC(N2C(=O)c3cccc(NCCOCCOCCC(=O)N4CCOC(c5cccc(OC(F)F)c5)C4)c3C2=O)C(=O)N1 (stereo not given),Emax,[3],28.3%
same,Activity,[10],Active
CN1C(=O)CCC(N2C(=O)c3cccc(NCCOCCC(=O)N(C)C(c4ccc(F)cc4)c4cccnc4)c3C2=O)C1=O (stereo not given),Emax,[3],inactive
same,Activity,[7],inactive
O=C1CCC(N2C(=O)c3ccc(NCCOCCC(=O)N4CCOC(c5cccc(OC(F)F)c5)C4)cc3C2=O)C(=O)N1 (stereo not given),Emax,[3],23.2%
CN(C(=O)CCOCCOCCNc1cccc2c1C(=O)N(C1CCC(=O)NC1=O)C2=O)C(c1ccc(F)cc1)c1cccnc1 (stereo not given),Emax,[3],26.5%
NS(=O)(=O)OC[C@@H]1C[C@@H](n2ccc3c(N[C@H]4CCc5ccccc54)ncnc32)C[C@@H]1O [PEVONEDISTAT],Activity,HEK293,Non-Toxic
CN(C(=O)CCOCCOCCOCCNc1cccc2c1C(=O)N(C1CCC(=O)NC1=O)C2=O)C(c1ccc(F)cc1)c1cccnc1 (stereo not given),Emax,[3],5.6%
CN(C(=O)CCOCCOCCOCCOCCNc1cccc2c1C(=O)N(C1CCC(=O)NC1=O)C2=O)C(c1ccc(F)cc1)c1cccnc1 (stereo not given),Emax,[3],5.5%
